From the NIST ThermoML archive (doi:10.1021/je500804j)

Experiment: mn = molality of the nth substance listed, in mol/kg
Conditions: 101 kPa, Liquid, Alternating current cell with electrodes

CCCCCCCC[N+](C)(C)CCCCCCCCCCCC[N+](C)(C)CCCCCCCC.[Br-].[Br-] + O
Conditions	electrical conductivity [S/m]
288.15 K, m1 = 0.00524	0.0948
288.15 K, m1 = 0.00825	0.1292
288.15 K, m1 = 0.01026	0.1522
288.15 K, m1 = 0.01325	0.1863
288.15 K, m1 = 0.01696	0.2286
288.15 K, m1 = 0.01986	0.2617
288.15 K, m1 = 0.02257	0.2928
288.15 K, m1 = 0.02469	0.3169
288.15 K, m1 = 0.0276	0.3349
288.15 K, m1 = 0.03026	0.3455
288.15 K, m1 = 0.03258	0.3547
288.15 K, m1 = 0.03485	0.3637
288.15 K, m1 = 0.03697	0.3722
288.15 K, m1 = 0.03965	0.3828
288.15 K, m1 = 0.0414	0.3897
288.15 K, m1 = 0.04287	0.3956
288.15 K, m1 = 0.04499	0.404
288.15 K, m1 = 0.04668	0.4107
288.15 K, m1 = 0.04802	0.416
288.15 K, m1 = 0.04996	0.4237
288.15 K, m1 = 0.05094	0.4276
288.15 K, m1 = 0.05281	0.435
288.15 K, m1 = 0.0543	0.441
288.15 K, m1 = 0.0552	0.4446
288.15 K, m1 = 0.05651	0.4497
288.15 K, m1 = 0.05808	0.456
288.15 K, m1 = 0.05949	0.4616
288.15 K, m1 = 0.06045	0.4654
288.15 K, m1 = 0.06136	0.469
288.15 K, m1 = 0.06193	0.4713
293.15 K, m1 = 0.00394	0.05156
293.15 K, m1 = 0.00765	0.1034
293.15 K, m1 = 0.01114	0.1525
293.15 K, m1 = 0.01444	0.1943
293.15 K, m1 = 0.01756	0.229
293.15 K, m1 = 0.02051	0.2582
293.15 K, m1 = 0.02331	0.2806
293.15 K, m1 = 0.02597	0.3012
293.15 K, m1 = 0.0285	0.316
293.15 K, m1 = 0.03091	0.3286
293.15 K, m1 = 0.0332	0.3423
293.15 K, m1 = 0.03539	0.3542
293.15 K, m1 = 0.03749	0.3651
293.15 K, m1 = 0.03949	0.3739
293.15 K, m1 = 0.0414	0.3836
293.15 K, m1 = 0.04323	0.3916
293.15 K, m1 = 0.04499	0.4007
293.15 K, m1 = 0.04668	0.4081
293.15 K, m1 = 0.0483	0.4165
293.15 K, m1 = 0.04986	0.4238
293.15 K, m1 = 0.05136	0.4302
293.15 K, m1 = 0.05281	0.436
293.15 K, m1 = 0.0542	0.4419
293.15 K, m1 = 0.05554	0.4484
293.15 K, m1 = 0.05683	0.4533
293.15 K, m1 = 0.05808	0.4587
293.15 K, m1 = 0.05929	0.4642
293.15 K, m1 = 0.06045	0.4689
293.15 K, m1 = 0.06158	0.4733
293.15 K, m1 = 0.06267	0.4778
298.15 K, m1 = 0.00394	0.04358
298.15 K, m1 = 0.00765	0.1152
298.15 K, m1 = 0.01115	0.1707
298.15 K, m1 = 0.01445	0.2175
298.15 K, m1 = 0.01541	0.2303
298.15 K, m1 = 0.01634	0.2425
298.15 K, m1 = 0.01727	0.2535
298.15 K, m1 = 0.01818	0.2637
298.15 K, m1 = 0.01907	0.2737
298.15 K, m1 = 0.01995	0.2808
298.15 K, m1 = 0.02081	0.2903
298.15 K, m1 = 0.02167	0.2984
298.15 K, m1 = 0.0225	0.306
298.15 K, m1 = 0.02333	0.3152
298.15 K, m1 = 0.02414	0.3211
298.15 K, m1 = 0.02494	0.3283
